From patent US11198869B2, “Angelman syndrome antisense treatment” (The Texas A&M University System, priority 2017, dated 2021)

Test system: UBE3A-AS
Test: UBE3A-AS RNA levels in CNS regions of Cynomolgus macaque after intrathecal lumbar puncture (SYBR Green qRT-PCR)
Assay type: in vivo, Cynomolgus macaque (Macaca fascicularis)
Conditions: for UBE3A-AS RNA levels in CNS regions (in words) / Cohen's d, effect size on UBE3A-AS RNA levels in CNS: 10 mg single intrathecal bolus, 28 days; for Difference in UBE3A-AS RNA levels relative to vehicle: Cynomolgus macaque, single 10 mg intrathecal lumbar puncture, 28 days after treatment
Procedure: The ASO-4 and ASO-6 target regions are conserved across several non-human primate (NHP) species, thus enabling both safety and efficacy studies in a large animal model. To examine the efficacy of ASO-4.4.PS.L and ASO-6.1.PO-1.O in the central nervous system (CNS), ASOs were delivered to Cynomolgus macaques by intrathecal lumbar puncture. Animals were administered a single bolus injection of vehicle (0.9% saline, n=5), ASO-6.1.PO-1.O (10 mg, n=3), and ASO.4.4.PS.L (10 mg, n=3). Twenty-eight days following treatment, central nervous (CNS) tissues were collected and the steady state RNA levels of UBE3A-AS were measured.
NHP studies were performed at Northern Biomedical Research and Charles River Laboratories using protocols approved by the institutions respective Institutional Animal Care and Use Committees. Male and female Cynomolgus macaques (Macaca fascicularis) weighing 2-4 kg were anesthetized and single 1 mL dose of ASO or vehicle was administered via intrathecal lumbar puncture. The dosing solution was prepared by dissolution of lyophilized ASO in the vehicle control article (0.9% sodium chloride) and was filtered through a 0.2-μm filter. CNS and spinal cord samples were harvested, and the CNS was sectioned into 4-mm coronal slices. Tissue samples were flash frozen and stored at −80° C. until RNA isolation.
A 4 mm tissue punch was taken from each region of interest of which approximately half was used for RNA isolation. RNA isolation was performed using the Qiagen RNeasy Plus Mini kit (74136, Qiagen) with tissue disruption and lysis performed with 5 mm stainless steel beads in a TissueLyser II. The RNA was eluted in two volumes of 30 μl water, for a total elution volume of 60 μl. RNA was quantified using the Qubit with the RNA XR assay (Q33224, Thermo Fisher Scientific). cDNA was synthesized from 2 μg of input RNA using the High Capacity RNA-to-cDNA kit (4387406, Thermo Fisher Scientific) in a total reaction volume of 50 μl.
Cynomolgus macaque UBE3A-AS RNA levels were estimated using SYBR Green quantitative reverse-transcription PCR (qRT-PCR). Total reaction volume was 10 μl, including 2 μl of cDNA, 1× PowerUp SYBR Green Master mix (A25741, Thermo Fisher Scientific), and 500 nM of each primer (forward and reverse). Cycling conditions were 2 minutes at 50° C., 2 minutes at 95° C., and 40 cycles of 15 seconds at 95° C. and 1 minute at 60° C., with readings taken at the 60° C. step of every cycle. Reactions were run on a BIO-RAD T1000 CFX96 thermocycler, with internal control (PPIA, forward: […] (SEQ ID NO:503); reverse: […] (SEQ ID NO:504)) and target (UBE3A-AS, forward: […] (SEQ ID NO:505); reverse: […] (SEQ ID NO:506)) reactions performed separately. Data was retrieved and initial analysis was done with the BIORAD CFX Maestro software, with in depth statistical analyses performed with Excel and JMP.

[1] = Frontal Cortex (Corona radiata)

Row | Substance | UBE3A-AS RNA levels in CNS regions (in words) | Cohen's d, effect size on UBE3A-AS RNA levels in CNS (versus Vehicle) | Difference in UBE3A-AS RNA levels relative to vehicle (Caudate Nucleus) | Difference in UBE3A-AS RNA levels relative to vehicle (Cerebellum) | Difference in UBE3A-AS RNA levels relative to vehicle [1] | Difference in UBE3A-AS RNA levels relative to vehicle (Frontal cortex) | Difference in UBE3A-AS RNA levels relative to vehicle (Globus Pallidus) | Difference in UBE3A-AS RNA levels relative to vehicle (Hippocampus) | Difference in UBE3A-AS RNA levels relative to vehicle (Medulla) | Difference in UBE3A-AS RNA levels relative to vehicle (Motor Cortex) | Difference in UBE3A-AS RNA levels relative to vehicle (Oculomotor Nucleus) | Difference in UBE3A-AS RNA levels relative to vehicle (Pons) | Difference in UBE3A-AS RNA levels relative to vehicle (Putamen) | Difference in UBE3A-AS RNA levels relative to vehicle (Spinal Cord (Lumbar)) | Difference in UBE3A-AS RNA levels relative to vehicle (Temporal Lobe) | Difference in UBE3A-AS RNA levels relative to vehicle (Thalamus) | Cohen's d, effect size on UBE3A-AS RNA levels in CNS (versus ASO-6.1.PO-1.O)
1 | C^O*U^O*G^O*G^O-t*g*t*c*a*a*c*a*a*g-C^O*C^O*A^O*A^o [ASO-6.1.PO-1.O] | reduced UBE3A-AS RNA levels in most CNS regions, with large effects observed in pons, oculomotor nucleus, and lumbar spinal cord | 0.3 | 0.10 | −0.11 | −0.08 | 0.01 | 0.10 | −0.19 | −0.24 | −0.19 | −0.37 | −0.27 | 0.07 | −0.32 | 0.13 | −0.02 | –
2 | A^L*G^L*A^L*a*t*g*g*c*a*c*a*t*c*t*5mC^L*T^L*T^L*G^L (NNNATGGCACATCTNNNN; LNA gapmer, PS, 5-methylcytosine, chemistry not fully specified) [ASO-4.4.PS.L] | reduced UBE3A-AS RNA in most CNS regions, with large effects in temporal lobe, primary motor cortex, pons, medulla, hippocampus, globus pallidus, frontal cortex (corona radiata), prefrontal cortex, and lumbar spinal cord | 1.4 | −0.21 | −0.05 | −0.62 | −0.71 | −0.38 | −0.57 | −0.32 | −0.59 | −0.18 | −0.47 | −0.04 | −0.87 | −0.59 | −0.20 | 1.0
